The supplement of paper PMC12350171

Columns and labels:
Bacteroides fragilis NT = experiment: IC25 growth inhibition; higher = less potent
Outline: (§1)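 Under anaerobic conditions, OD578 was read hourly in a plate reader for at least three biological replicates of monocultures grown overnight in mGAM. Each culture started at an OD578 of 0.01 in pre-reduced plates holding twofold drug dilutions and 1% DMSO (or water). IC25 was reported as a tested interval: the lowest concentration where the monotonic median area under the growth curve dropped below the cutoff. That cutoff was 0.75.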

[1] = tested on: Bacteroides thetaiotaomicron; experiment: IC25 growth inhibition; higher = less potent
Outline: as §1

Bacteroides uniformis = experiment: IC25 growth inhibition; higher = less potent
Outline: as §1

Bacteroides vulgatus = experiment: IC25 growth inhibition; higher = less potent
Outline: as §1

Clostridium bolteae = experiment: IC25 growth inhibition; higher = less potent
Outline: as §1

Clostridium perfringens = experiment: IC25 growth inhibition; higher = less potent
Outline: as §1

Clostridium ramosum = experiment: IC25 growth inhibition; higher = less potent
Outline: as §1

[2] = tested on: Clostridium saccharolyticum; experiment: IC25 growth inhibition; higher = less potent
Outline: as §1

Collinsella aerofaciens = experiment: IC25 growth inhibition; higher = less potent
Outline: as §1

Coprococcus comes = experiment: IC25 growth inhibition; higher = less potent
Outline: as §1

Dorea formicigenerans = experiment: IC25 growth inhibition; higher = less potent
Outline: as §1

Escherichia coli ED1a = experiment: IC25 growth inhibition; higher = less potent
Outline: as §1

Eubacterium rectale = experiment: IC25 growth inhibition; higher = less potent
Outline: as §1

[3] = tested on: Fusobacterium nucleatum subsp. Nucleatum; experiment: IC25 growth inhibition; higher = less potent
Outline: as §1

Parabacteroides merdae = experiment: IC25 growth inhibition; higher = less potent
Outline: as §1

Roseburia intestinalis = experiment: IC25 growth inhibition; higher = less potent
Outline: as §1

Ruminococcus gnavus = experiment: IC25 growth inhibition; higher = less potent
Outline: as §1

[4] = tested on: Salmonella enterica typhimurium; experiment: IC25 growth inhibition; higher = less potent
Outline: as §1

Shigella flexneri = experiment: IC25 growth inhibition; higher = less potent
Outline: as §1

[5] = tested on: Streptococcus parasanguinis; experiment: IC25 growth inhibition; higher = less potent
Outline: as §1

Streptococcus salivarius = experiment: IC25 growth inhibition; higher = less potent
Outline: as §1

Vibrio cholerae = experiment: IC25 growth inhibition; higher = less potent
Outline: as §1

[6] = tested on: Yersinia enterocolitica WA-314; experiment: IC25 growth inhibition; higher = less potent
Outline: as §1

[7] = tested on: Yersinia pseudotuberculosis; experiment: IC25 growth inhibition; higher = less potent
Outline: as §1

[8] = tested on: Com21 synthetic gut community; experiment: community biomass OD578 after 24 h drug treatment relative to untreated (fraction of untreated control); higher = more community growth; conditions: community: Com21 (Com20 + E. coli ED1a)
Method: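 Com21 (Com20 plus E. coli ED1a) was treated with drug for 24 h under anaerobic conditions in mGAM. Community OD578 was then measured and normalised to untreated Com21; mean of 3 biological replicates.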

[9] = drug pretreatment concentration 10 µM
[10] = drug pretreatment concentration 20 µM
[11] = drug pretreatment concentration 40 µM
[12] = drug pretreatment concentration 80 µM
[13] = drug pretreatment concentration 160 µM
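Throughout, for IC25 growth inhibition: lowest concentration where monotonic median growth AUC falls below 0.75 of drug-free control.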

| Structure (SMILES) | IC25 growth inhibition (Bacteroides fragilis NT) | IC25 growth inhibition [1] | IC25 growth inhibition (Bacteroides uniformis) | IC25 growth inhibition (Bacteroides vulgatus) | IC25 growth inhibition (Clostridium bolteae) | IC25 growth inhibition (Clostridium perfringens) | IC25 growth inhibition (Clostridium ramosum) | IC25 growth inhibition [2] | IC25 growth inhibition (Collinsella aerofaciens) | IC25 growth inhibition (Coprococcus comes) | IC25 growth inhibition (Dorea formicigenerans) | IC25 growth inhibition (Escherichia coli ED1a) | IC25 growth inhibition (Eubacterium rectale) | IC25 growth inhibition [3] | IC25 growth inhibition (Parabacteroides merdae) | IC25 growth inhibition (Roseburia intestinalis) | IC25 growth inhibition (Ruminococcus gnavus) | IC25 growth inhibition [4] | IC25 growth inhibition (Shigella flexneri) | IC25 growth inhibition [5] | IC25 growth inhibition (Streptococcus salivarius) | IC25 growth inhibition (Vibrio cholerae) | IC25 growth inhibition [6] | IC25 growth inhibition [7] | community biomass OD578 [8, 9] | community biomass OD578 [8, 10] | community biomass OD578 [8, 11] | community biomass OD578 [8, 12] | community biomass OD578 [8, 13] | community biomass OD578 ([8]; drug pretreatment concentration 2.5 µM) | community biomass OD578 ([8]; drug pretreatment concentration 5 µM) |
| --- | --- | --- | --- | --- | --- | --- | --- | --- | --- | --- | --- | --- | --- | --- | --- | --- | --- | --- | --- | --- | --- | --- | --- | --- | --- | --- | --- | --- | --- | --- | --- |
| CN(C)C(=N)NC(=N)N [Metformin] | > 160 µM | > 160 µM | > 160 µM | > 160 µM | > 160 µM | > 160 µM | > 160 µM | > 160 µM | > 160 µM | > 160 µM | > 160 µM | > 160 µM | > 160 µM | > 160 µM | > 160 µM | > 160 µM | > 160 µM | > 160 µM | > 160 µM | > 160 µM | > 160 µM | > 160 µM | > 160 µM | > 160 µM | 1.02 | 1.01 | 1.01 | 1.02 | 1.03 | – | – |
| CN(Cc1cnc2nc(N)nc(N)c2n1)c1ccc(C(=O)N[C@@H](CCC(=O)O)C(=O)O)cc1 [Methotrexate] | ≤ 40 µM | > 80 µM | ≤ 10 µM | ≤ 20 µM | ≤ 10 µM | ≤ 20 µM | < 1.25 µM | > 80 µM | ≤ 80 µM | ≤ 80 µM | ≤ 40 µM | > 40 µM | ≤ 80 µM | ≤ 20 µM | > 80 µM | > 80 µM | ≤ 10 µM | > 80 µM | > 80 µM | < 1.25 µM | ≤ 5 µM | ≤ 40 µM | > 80 µM | > 80 µM | 0.934 | 0.95 | 0.802 | – | – | 0.93 | 0.91 |
| Clc1ccc(COC(Cn2ccnc2)c2ccc(Cl)cc2Cl)c(Cl)c1 (stereo unspecified) [Miconazole] | > 160 µM | > 160 µM | > 160 µM | ≤ 160 µM | ≤ 80 µM | ≤ 40 µM | ≤ 10 µM | ≤ 40 µM | ≤ 10 µM | ≤ 5 µM | ≤ 5 µM | > 80 µM | ≤ 2.5 µM | > 40 µM | ≤ 80 µM | ≤ 5 µM | ≤ 10 µM | > 160 µM | > 40 µM | > 160 µM | > 80 µM | > 40 µM | ≤ 160 µM | > 40 µM | 1.02 | 0.969 | 0.893 | 0.702 | 0.547 | – | – |
| O=C(Nc1ccc([N+](=O)[O-])cc1Cl)c1cc(Cl)ccc1O [Niclosamide] | < 1.25 µM | < 1.25 µM | < 1.25 µM | < 1.25 µM | > 80 µM | ≤ 2.5 µM | ≤ 2.5 µM | ≤ 20 µM | ≤ 5 µM | ≤ 20 µM | ≤ 20 µM | > 80 µM | ≤ 5 µM | ≤ 80 µM | < 1.25 µM | ≤ 20 µM | ≤ 10 µM | > 160 µM | > 40 µM | < 1.25 µM | < 1.25 µM | < 1.25 µM | > 160 µM | > 20 µM | 0.912 | 0.901 | 0.897 | 0.823 | 0.811 | – | – |
